Measured values reported in ChEMBL document CHEMBL4334438, “Discovery of novel glycogen synthase kinase-3α inhibitors: Structure-based virtual screening, preliminary SAR and biological evaluation for treatment of acute myeloid leukemia” (Eur J Med Chem, 2019).

Assays:
[1] = tested on: HL-60; assay: Induction of cell differentiation in human HL60 cells assessed as increase in CD11c-APC positive cells after 6 days by flow cytometry analysis; assay type: functional, cell-based
[2] = target: Serine/threonine-protein kinase DCLK1 (Homo sapiens) (UniProt O15075); assay: Inhibition of recombinant human DCAMKL1 assessed as residual activity at 1 uM radiometric assay relative to control
Serine/threonine-protein kinase DCLK1 (Homo sapiens), sequence (O15075 whole entry, canonical isoform): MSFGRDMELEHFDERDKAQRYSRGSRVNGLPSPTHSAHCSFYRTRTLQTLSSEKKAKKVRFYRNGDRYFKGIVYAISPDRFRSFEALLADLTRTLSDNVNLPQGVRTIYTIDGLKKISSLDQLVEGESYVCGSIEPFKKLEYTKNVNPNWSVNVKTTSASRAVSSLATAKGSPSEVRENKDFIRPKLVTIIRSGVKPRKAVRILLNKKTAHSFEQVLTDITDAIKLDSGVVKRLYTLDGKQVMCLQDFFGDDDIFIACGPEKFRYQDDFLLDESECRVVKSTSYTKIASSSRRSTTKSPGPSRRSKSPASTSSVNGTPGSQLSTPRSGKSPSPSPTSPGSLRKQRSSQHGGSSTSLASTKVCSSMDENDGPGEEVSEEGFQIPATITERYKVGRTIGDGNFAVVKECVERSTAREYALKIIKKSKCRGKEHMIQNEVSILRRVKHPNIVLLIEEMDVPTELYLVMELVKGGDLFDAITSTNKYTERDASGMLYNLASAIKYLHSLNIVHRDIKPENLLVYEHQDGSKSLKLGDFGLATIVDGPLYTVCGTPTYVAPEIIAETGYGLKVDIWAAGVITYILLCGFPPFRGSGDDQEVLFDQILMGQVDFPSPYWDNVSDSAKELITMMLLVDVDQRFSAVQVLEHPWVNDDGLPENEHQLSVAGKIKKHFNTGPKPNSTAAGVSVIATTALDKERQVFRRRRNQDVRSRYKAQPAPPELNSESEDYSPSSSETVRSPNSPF

[3] = target: Casein kinase I isoform epsilon (Homo sapiens) (UniProt P49674); assay: Inhibition of recombinant human CK1epsilon assessed as residual activity at 1 uM using KRRRALS(p)VASLPGL as substrate incubated for 120 mins in presence of [gamma-33ATP] by scintillation counting based radiometry assay relative to control
Casein kinase I isoform epsilon (Homo sapiens), sequence (P49674 whole entry, looked up, canonical isoform): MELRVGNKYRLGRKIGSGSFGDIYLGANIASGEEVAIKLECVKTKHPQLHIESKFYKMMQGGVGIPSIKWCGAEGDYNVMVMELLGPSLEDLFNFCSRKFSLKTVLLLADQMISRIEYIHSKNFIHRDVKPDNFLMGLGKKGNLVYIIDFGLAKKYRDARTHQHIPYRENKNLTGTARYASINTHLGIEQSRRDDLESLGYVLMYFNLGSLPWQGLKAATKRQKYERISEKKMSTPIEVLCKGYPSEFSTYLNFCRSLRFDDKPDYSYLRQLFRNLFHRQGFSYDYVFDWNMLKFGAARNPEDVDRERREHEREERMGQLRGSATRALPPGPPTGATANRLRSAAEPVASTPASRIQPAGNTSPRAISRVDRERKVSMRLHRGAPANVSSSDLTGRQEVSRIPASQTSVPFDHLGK

[4] = target: STE20/SPS1-related proline-alanine-rich protein kinase (Homo sapiens) (UniProt Q9UEW8); assay: Inhibition of recombinant human STK39 assessed as residual activity at 1 uM in presence of [gamma33P]ATP by scintillation counting based radiometry assay relative to control
[5] = target: Citron Rho-interacting kinase (Homo sapiens) (UniProt O14578); assay: Inhibition of recombinant human CRIK assessed as residual activity at 1 uM KKLRRTLSVA as substrate incubated 120 mins by scintillation counting method relative to control
Citron Rho-interacting kinase (Homo sapiens), sequence (O14578 whole entry): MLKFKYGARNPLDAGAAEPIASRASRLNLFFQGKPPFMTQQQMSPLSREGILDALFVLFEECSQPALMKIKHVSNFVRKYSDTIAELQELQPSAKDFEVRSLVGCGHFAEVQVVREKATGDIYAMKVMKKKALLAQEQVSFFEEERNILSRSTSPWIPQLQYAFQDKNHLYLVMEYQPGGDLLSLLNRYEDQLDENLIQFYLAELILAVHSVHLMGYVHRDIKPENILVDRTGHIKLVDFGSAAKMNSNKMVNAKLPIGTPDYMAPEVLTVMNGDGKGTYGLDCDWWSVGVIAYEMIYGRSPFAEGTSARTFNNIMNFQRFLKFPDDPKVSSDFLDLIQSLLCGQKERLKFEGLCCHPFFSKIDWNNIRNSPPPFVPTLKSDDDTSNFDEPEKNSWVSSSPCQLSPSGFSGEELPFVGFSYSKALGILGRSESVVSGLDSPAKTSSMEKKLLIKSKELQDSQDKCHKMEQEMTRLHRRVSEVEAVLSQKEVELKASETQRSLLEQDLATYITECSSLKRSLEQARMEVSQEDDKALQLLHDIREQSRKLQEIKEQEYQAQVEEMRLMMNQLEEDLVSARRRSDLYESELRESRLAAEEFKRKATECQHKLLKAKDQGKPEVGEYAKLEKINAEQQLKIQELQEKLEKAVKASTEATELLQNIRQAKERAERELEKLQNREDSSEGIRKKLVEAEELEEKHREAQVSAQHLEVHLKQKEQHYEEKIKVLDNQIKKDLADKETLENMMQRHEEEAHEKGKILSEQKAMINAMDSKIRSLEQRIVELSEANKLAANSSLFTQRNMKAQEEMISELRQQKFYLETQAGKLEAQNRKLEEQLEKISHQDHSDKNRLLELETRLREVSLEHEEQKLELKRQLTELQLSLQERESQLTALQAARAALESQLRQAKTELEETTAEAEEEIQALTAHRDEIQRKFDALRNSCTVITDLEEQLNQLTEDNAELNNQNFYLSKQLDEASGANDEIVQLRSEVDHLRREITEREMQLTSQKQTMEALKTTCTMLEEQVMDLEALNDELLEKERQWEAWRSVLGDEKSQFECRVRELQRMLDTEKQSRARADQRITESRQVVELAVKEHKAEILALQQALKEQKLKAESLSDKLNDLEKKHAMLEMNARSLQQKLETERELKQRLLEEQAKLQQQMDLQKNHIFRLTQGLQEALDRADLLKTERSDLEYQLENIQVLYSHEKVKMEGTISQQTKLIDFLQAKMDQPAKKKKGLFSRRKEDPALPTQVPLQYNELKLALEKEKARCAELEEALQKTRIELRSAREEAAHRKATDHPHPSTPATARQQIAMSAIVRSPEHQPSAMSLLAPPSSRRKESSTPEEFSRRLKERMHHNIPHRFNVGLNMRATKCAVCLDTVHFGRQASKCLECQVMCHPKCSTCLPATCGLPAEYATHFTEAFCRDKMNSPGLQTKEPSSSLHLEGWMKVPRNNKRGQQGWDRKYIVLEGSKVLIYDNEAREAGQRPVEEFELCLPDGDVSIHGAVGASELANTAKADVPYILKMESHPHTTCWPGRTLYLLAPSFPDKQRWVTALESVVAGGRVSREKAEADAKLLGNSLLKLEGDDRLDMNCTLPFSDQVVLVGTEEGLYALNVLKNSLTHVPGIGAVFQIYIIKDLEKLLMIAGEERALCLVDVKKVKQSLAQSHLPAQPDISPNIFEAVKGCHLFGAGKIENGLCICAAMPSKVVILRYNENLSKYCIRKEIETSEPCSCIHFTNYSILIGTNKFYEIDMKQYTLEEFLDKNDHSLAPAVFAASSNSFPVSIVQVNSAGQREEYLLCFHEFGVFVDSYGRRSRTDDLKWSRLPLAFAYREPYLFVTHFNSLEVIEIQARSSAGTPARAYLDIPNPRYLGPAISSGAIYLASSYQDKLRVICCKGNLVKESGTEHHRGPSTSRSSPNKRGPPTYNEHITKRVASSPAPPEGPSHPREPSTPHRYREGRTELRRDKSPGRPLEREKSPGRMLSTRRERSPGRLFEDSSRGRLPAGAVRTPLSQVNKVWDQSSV

[6] = tested on: HL-60; assay: Induction of cell differentiation in human HL60 cells assessed as increase in CD14-FITC positive cells after 6 days by flow cytometry analysis; assay type: functional, cell-based
[7] = target: Serine/threonine-protein kinase LATS2 (Homo sapiens) (UniProt Q9NRM7); assay: Inhibition of human LATS2 assessed as residual activity at 1 uM by radiometric assay relative to control
Serine/threonine-protein kinase LATS2 (Homo sapiens), sequence (Q9NRM7 whole entry): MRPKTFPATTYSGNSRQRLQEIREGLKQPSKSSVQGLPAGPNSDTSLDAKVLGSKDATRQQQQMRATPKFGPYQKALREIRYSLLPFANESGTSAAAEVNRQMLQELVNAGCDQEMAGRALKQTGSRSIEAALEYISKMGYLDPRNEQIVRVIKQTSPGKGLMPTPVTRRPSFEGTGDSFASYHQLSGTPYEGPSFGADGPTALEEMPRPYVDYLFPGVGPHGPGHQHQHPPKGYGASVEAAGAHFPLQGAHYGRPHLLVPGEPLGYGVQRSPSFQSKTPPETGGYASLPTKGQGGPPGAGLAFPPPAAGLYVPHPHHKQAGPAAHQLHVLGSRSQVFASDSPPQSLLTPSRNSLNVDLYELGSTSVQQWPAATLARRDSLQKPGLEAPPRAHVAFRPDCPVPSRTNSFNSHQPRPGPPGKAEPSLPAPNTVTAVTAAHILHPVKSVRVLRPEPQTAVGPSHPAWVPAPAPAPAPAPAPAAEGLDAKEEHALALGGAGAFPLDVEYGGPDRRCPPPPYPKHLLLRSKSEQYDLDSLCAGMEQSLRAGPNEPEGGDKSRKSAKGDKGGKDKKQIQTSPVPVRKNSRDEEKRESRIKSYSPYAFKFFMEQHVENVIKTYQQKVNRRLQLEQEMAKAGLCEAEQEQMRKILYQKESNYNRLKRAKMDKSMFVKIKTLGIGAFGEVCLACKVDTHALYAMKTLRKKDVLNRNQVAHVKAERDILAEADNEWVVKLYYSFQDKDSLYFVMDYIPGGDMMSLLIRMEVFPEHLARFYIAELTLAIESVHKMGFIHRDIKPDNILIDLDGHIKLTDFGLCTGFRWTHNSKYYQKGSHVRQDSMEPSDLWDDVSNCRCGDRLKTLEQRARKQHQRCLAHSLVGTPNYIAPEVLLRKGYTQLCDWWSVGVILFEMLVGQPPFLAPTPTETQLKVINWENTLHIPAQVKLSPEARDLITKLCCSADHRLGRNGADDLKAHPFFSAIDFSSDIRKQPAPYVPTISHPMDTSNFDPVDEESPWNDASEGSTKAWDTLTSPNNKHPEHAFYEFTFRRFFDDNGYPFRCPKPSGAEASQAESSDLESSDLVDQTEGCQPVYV

C=CCOC(=O)c1cc(-c2ccc(/C=C3/NC(=S)NC3=O)o2)ccc1Cl
Activity [1]: Dose-dependent effect
Activity [2]: 85%
Activity [3]: 91%
Activity [4]: 103%
Activity [5]: 95%
Activity [6]: Dose-dependent effect
Activity [7]: 100%
